Measured values taken from publication PMC8219027, “A small-molecule inhibitor of the BRCA2-RAD51 interaction modulates RAD51 assembly and potentiates DNA damage-induced cell death” (Cell Chemical Biology, 2021).
Read-outs that look alike come from different tables or passages of the source. One block for each compound: values may come before it.

Experiments:
HCT116 cells = assay: SRB growth inhibition assay; type: cell-based, human; settings: SRB 96 h, Figure 6D (cell line not given)
Protocol: (§1) Adherent cell lines (HCT116 and A549 cells) were seeded into flat-bottomed tissue culture 96-well plates in a volume of 150 μL of growth medium. HCT116 cells were seeded at 750 cells per well and A549 cells were seeded at 1000 cells per well. After 24 hours, compounds dissolved in DMSO were diluted in growth medium and were added to cells such that the final DMSO concentration was 1% (v/v) and the final volume in the well was 200 μL. Cells were then incubated in the presence of compound for 96 hours before fixation.
(§2) Medium was removed from cells and 100 μL of cold 1% (v/v) trichloroacetic acid was added for 30 minutes at 4 degrees. The plates were washed three times in tap water and left to dry at room temperature. The fixed cells were stained in a 0.057% sulphorodamine B/1% acetic acid solution (w/v) and incubated at room temperature with agitation for 30 minutes after which the dye was removed and the plates washed in 1% (v/v) acetic acid and left to dry. The dye was then solubilised in 10 mM Tris solution (pH8) and incubated for 30 minutes under agitation. The plates were then read on a PHERAstar plus plate reader (BMG Labtech) using the fluorescence intensity module (540-590 nm). Growth inhibition was calculated relative to DMSO controls and GI50 values were calculated using Graphpad Prism.

ChimRAD51 [1] = molecular target: ChimRAD51; parameters: method as in Moschetti et al., 2016; settings: ref Moschetti et al., 2016; read-out: Kd of binding to ChimRAD51 by ITC; cited from earlier work
ChimRAD51 [2] = molecular target: ChimRAD51; parameters: method as in Moschetti et al., 2016; settings: direct binding of BRC4 peptide; ref Moschetti et al., 2016; read-out: Kd of binding to ChimRAD51 by FP; cited from earlier work
HumRadA2 [3] = molecular target: T1, HumRadA2 (Pyrococcus furiosus, UniProt O74036, D220A/E219S/I169M/K221M/V202Y/Y201A); assay: Isothermal titration calorimetry (ITC) against HumRadA2; type: binding, Pyrococcus furiosus (humanised RadA)
Protocol: ITC was performed using a Microcal iTC200 instrument at 25°C. Experiments typically involved titrating a 10-fold excess of ligand in the injection syringe against the protein ([HumRadA2] = 60 μM or [ChimRAD51] = 20 μM) in either 200 mM Tris buffer at pH 7.5 and 100 mM NaCl (HumRadA2) or 20 mM potassium phosphate at pH 8.0 and 192 mM KCl (ChimRAD51). Titrations were typically performed with 5-10% DMSO and care was taken to ensure that the DMSO concentrations in the protein and ligand solutions were well matched. The raw ITC data were fitted using a single-site binding model in Microcal ITC LLC data analysis program in the Origin 7.0 package to derive the dissociation constant, stoichiometry and ΔH of binding. […]

HumRadA2 [4] = molecular target: T1, HumRadA2; settings: ref Scott et al., 2016; read-out: Kd against HumRadA2 by ITC; cited from earlier work
[5] = tested on: HCT116 cells (BRCA2 wild-type); assay: SRB growth inhibition assay, combination of CAM833 and PARP1 inhibitor AZD2461; type: cell-based, human; settings: HCT116, fixed dose 0.1 μM or 1 μM, 96 h
Protocol: as §1, §2
For the PARP inhibitor experiments, the SRB method was used as described above to measure growth inhibition with the exception that cells were seeded into 150 μl medium and then a combination of either 25 μl of CAM833, AZD2461 (SelleckChem; #S7029) or DMSO was added to give a total volume of 200 ul in the well.

Aqueous solubility = settings: for profiling in cell-based assays
[6] = molecular target: ChimRAD51 (chimeric RAD51/RadA protein) (Pyrococcus furiosus | human); assay: fluorescence polarisation; competition: 10 nM Alexa Fluor 488-labelled BRC4 peptide and 50 nM ChimRAD51 (about 80-90% saturation), increasing concentration of competitor; isotherms fitted with the expression of Wang (1995)

Compound: N.N.O=C([O-])C1(C(=O)[O-])CCC1.[Pt+2] [Carboplatin, reference compound]
IC50 (HCT116 cells; 0 Gy IR): 9.9 µM
IC50 (HCT116 cells; 1 Gy IR): 9 µM
IC50 (HCT116 cells; 2 Gy IR): 10.6 µM
IC50 (HCT116 cells; 3 Gy IR): 11.1 µM

Compound: BRC4 peptide: BRC4 repeat peptide of BRCA2 (CKEPTLLGFHTASGKKVKIAKESLDKVKNLFDEKEQ; Alexa Fluor 488 (maleimide dye) on the additional N-terminal cysteine)
Kd (ChimRAD51 [1]): 0.006 µM
Kd (ChimRAD51 [2]): 0.004 µM

Compound: Nc1cc2ccccc2cc1C(=O)O [Compound 3, 3-amino-2-naphthoic acid]
Kd (HumRadA2 [3]): 1300 µM

Compound: Ac-FHTA-NH2 [Compound 1]
Kd (HumRadA2 [4]): 280 µM

Compound: COC1CCN(C(=O)c2cc(Cc3n[nH]c(=O)c4ccccc34)ccc2F)CC1 [AZD2461, reference compound]
growth inhibition by AZD2461 alone (in words) [5]: little effect

Compound: C[C@H](NC(=O)[C@@H]1CCCN1C(=O)[C@H](Cc1c[nH]cn1)NC(=O)c1cc2ccccc2cc1N)C(N)=O [Compound 4]
Kd (HumRadA2 [3]): 3 µM

Compound: C[C@H](NC(=O)c1ccc2ccccc2c1)C(=O)N1CCC[C@H]1C(=O)N[C@@H](C)c1ccccc1 [Compound 5, (S)-1-((2-Naphthoyl)-L-alanyl)-N-((S)-1-phenylethyl)pyrrolidine-2-carboxamide]
Kd (HumRadA2 [3]): 0.22 µM
solubility in aqueous media (in words) (Aqueous solubility): too insoluble

Kd [6]: 36 µM
Compound: N-terminal "FxxA" half of the BRC4 repeat (FxxA half-peptide)
